Laboratory results: PubChem BioAssay (NCI)
“And” between values parts separate entries of the source, which are not always exact repeats. Equal values may be shown once.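 Results reflect a 48-hour exposure of cells in 96-well plates to compound at five concentrations. GI50 is the concentration that inhibits growth by half. At the TGI there is no net growth.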

Legend:
Assay in all cases: NCI tumour cell line growth inhibition, 48 h
XF 498 CNS = tested on: XF 498 CNS
HOP-18 NSCLC = tested on: HOP-18 NSCLC
MDA-MB-435 = tested on: MDA-MB-435
DU-145 prostate = tested on: DU-145 prostate
MDA-N = tested on: MDA-N
P388/ADR leukemia = tested on: P388/ADR leukemia
P388 leukemia = tested on: P388 leukemia
SN12K1 renal = tested on: SN12K1 renal

Structure (SMILES)	TGI (HOP-18 NSCLC) [µM]	GI50 (MDA-MB-435)	TGI (MDA-MB-435)	GI50 (DU-145 prostate)	TGI (DU-145 prostate)	other results
CC(=O)OCCOCNC(=S)N/N=C/c1ccc2ccccc2n1	> 100					TGI (XF 498 CNS): > 100 µM
COc1ccc(Cl)cc1Nc1nc(C(F)(F)F)ccc1C(=O)N/N=C/c1ccc([N+](=O)[O-])cc1		2.66 µM	13.1 µM	1.27 µM	3.21 µM	
Cc1cc(Cc2cc(C)c(O)c(C)c2)cc(C)c1O				14.6 µM	> 100 µM	
C[C@@H](C1CCC2C3C(=CC(=O)[C@@]21C)[C@H](C)[C@]1(CCC(=O)O1)C1OC31)[C@H]1C[C@]2(C)O[C@@](C)(O1)OC2(C)C (some centres undefined)	> 100					TGI (XF 498 CNS): > 100 µM
Clc1ccccc1C(n1ncc2ccccc21)n1ncc2ccccc21						TGI (XF 498 CNS): > 100 µM
COc1cc(NS(C)(=O)=O)ccc1Nc1c2ccccc2nc2c(C)cccc12		0.626 µM and 1.44 µM	11.9 µM and 18.1 µM	0.145 µM and 0.163 µM	7 µM and 11.5 µM	
CC1=CC[C@@H]2C(C)(C)C(=O)CC[C@@]2(C)[C@@H]1COc1ccc2ccc(=O)oc2c1		11.9 µM	29.9 µM	23.6 µM	93.6 µM	
COc1cc(-c2nn(-c3ccc(NC(=O)Nc4ccc(Cl)c(Cl)c4)cc3)cc2-c2ccncc2)ccc1Cl		2.87 µM	8.8 µM	4.33 µM	69.7 µM	
CN(CCC#N)c1ccc(/C=C(\C#N)c2cccc(C(F)(F)F)c2)cc1		2.07 µM	6 µM	11.3 µM	> 100 µM	
CN(Cc1cnc(N)nc1N)c1ccc(C(=O)O)cc1		> 100 µM	> 100 µM	> 100 µM	> 100 µM	
O=C1c2ccccc2C(=O)C2C1C1C(=O)c3ccccc3C(=O)C21 (centres undefined)	> 100					
Cc1nc2ccccc2c(=O)n1/N=C(\N=Nc1cc(Cl)ccc1Cl)c1cccc(-c2ccco2)c1	> 100					
O=S(=O)(Nc1cc(Br)c(O)c2ccccc12)c1ccc(F)cc1		1.82 µM	3.3 µM	1.83 µM	3.32 µM	
CC1(C)C(c2ccccc2)=NN(O)c2ccccc21	> 100					
Cc1cc(=O)n(-c2ccccc2)c(=O)o1	> 100					
Cc1csc(/C=N/NC(=O)c2nnn(-c3ccnc4c(C(F)(F)F)cccc34)c2C)c1		85.3 µM	> 100 µM	> 100 µM	> 100 µM	
O=c1oc2cc(N=Cc3ccccc3Cl)ccc2c2ccccc12			> 100 µM		> 100 µM	TGI (MDA-N): > 100 µM
CC(C)N(C(=O)C12C3C4C5C3C1(C(=O)N(C(C)C)C(C)C)C5(C#N)C42)C(C)C (centres undefined)	> 100					TGI (XF 498 CNS): > 100 µM
COc1cc2ccccc2c2cc([N+](=O)[O-])oc12			0.733 µM		7.49 µM	TGI (MDA-N): 0.849 µM
O=C(c1ccccc1)C(c1ccccc1)C1(O)C(=O)Nc2ccccc21 (centres undefined)						TGI (XF 498 CNS): > 100 µM
Cc1c(C)c2c(c(C)c1NC(=O)/C=C\C(=O)O)CCC(C)(CCCC(C)CCCC(C)CCCC(C)C)O2 (centres undefined)		1.67 µM	3.44 µM	1.69 µM	3.05 µM	
CC1=CCC2(C#N)CCC1C2O (centres undefined)	> 100					TGI (XF 498 CNS): > 100 µM
Cc1cc(N2CCN(C)CC2)nc(NCc2cc(Nc3ccnc4cc(Cl)ccc34)ccc2F)n1		1.76 µM	3.9 µM	2.52 µM	> 100 µM	
N=CCCN(CCC=N)c1ccc(/C=C2\CN(NC(=O)c3ccc(Cl)cc3)C(c3ccccc3)=N2)cc1	> 100					
O=C(O)c1c[nH]c2c(=O)[nH]cnc12	> 100					

Structure (SMILES)	TGI (HOP-18 NSCLC) [µM]	GI50 (MDA-MB-435)	TGI (MDA-MB-435)	GI50 (DU-145 prostate)	TGI (DU-145 prostate)	other results
COC1C(O)C(C)OC(OC2C(Oc3cccc4c(O)c5c(=O)oc6ccc(C)c7c(=O)oc(c34)c5c67)OC(C)C3O[C@H](c4ccccc4)OC32)C1O (some centres undefined)	13.6	0.309 µM and 0.436 µM	7.22 µM	0.484 µM	3.19 µM	TGI (XF 498 CNS): 2.21 µM; GI50 (MDA-N): 0.327 µM; TGI (MDA-N): 10.4 µM
NC(C/[N+]([O-])=N/O)C(=O)O (centres undefined)	> 472	11.7 µM and 17.9 µM and 10.6 µM	> 500 µM	173 µM	> 500 µM	TGI (XF 498 CNS): 40.1 µM; TGI (MDA-N): > 500 µM; TGI (P388/ADR leukemia): 336 µM; TGI (P388 leukemia): 337 µM; TGI (SN12K1 renal): 257 µM
O=C(Cc1nc2ccccc2c(=O)n1-c1c(Cl)cccc1Cl)c1ccncc1	93.1					
O=C(/C=C1\C(=O)N(Cc2ccc([N+](=O)[O-])cc2)c2ccccc21)c1ccc(OCCN2CCCCC2)cc1		1.2 µM	2.52 µM	1.56 µM	2.93 µM	
CC1(C)C(c2ccccc2)C12CCC1(C2=O)C(c2ccccc2)C1(C)C (centres undefined)						TGI (XF 498 CNS): 36.1 µM
N#CCCN(CCC#N)C(=O)c1cccc(C(=O)N(CCC#N)CCC#N)c1						TGI (XF 498 CNS): > 100 µM
C=CCn1c(=O)c2cnc(Nc3ccc(N4CCN(C)CC4)cc3)nc2n1-c1ccc2c(n1)[C@@](O)(CC)CC2		0.226 µM	0.795 µM	0.939 µM	35.3 µM	
O=C(COc1ccc(/C=C2\Oc3ccccc3C2=O)cc1)Nc1nccs1		8.47 µM	> 100 µM	71 µM	> 100 µM	
COc1cc2c(c(OC)c1OC)C(=O)CC(c1cccc(NC(=O)c3ccc(Br)cc3)c1)O2 (centres undefined)		1.46 µM	4.46 µM	2.85 µM	> 100 µM	
NC(N)=NS(=O)(=O)c1ccc(Nc2c3ccccc3nc3c(C(=O)N4CCN(CCO)CC4)cccc23)cc1	> 100					TGI (XF 498 CNS): > 100 µM
COc1cc(/C=N/Nc2ncnc3c2cnn3C(C)C)ccc1O		7.66 µM	> 25 µM	8.03 µM	> 25 µM	
O=C(/C=C/c1ccccc1)c1c[nH]c2ccccc2c1=O		3.17 µM	13.8 µM	1.57 µM	6.34 µM	
O=C1c2ccccc2NC(c2cc(Cl)cc(Cl)c2O)N1CCc1ccccn1 (centres undefined)			> 100 µM		> 100 µM	TGI (MDA-N): > 100 µM
C=C1C(=O)O[C@H]2[C@H]1CC/C(Cn1cc(CNCCc3c[nH]c4ccc(Cl)cc34)nn1)=C\CC[C@@]1(C)O[C@@H]21		6.09 µM	21 µM	5.95 µM	18.5 µM	
COc1ccc(-c2nn(-c3ccc(NC(=O)c4ccc(Cl)c(C(F)(F)F)c4)cc3)cc2-c2ccncc2)cc1Cl		1.16 µM	> 100 µM	4.6 µM	> 100 µM	
Cc1ccc(NC(=O)CC/C(CC(=O)C(C)(C)C)=N/NC(=O)C(N)=O)cc1C	> 100					TGI (XF 498 CNS): > 100 µM
O=C(O)C1CCc2nnc(-c3ccccc3)n21 (centres undefined)	> 100					
Cc1oc2nc[nH]c(=O)c2c1C(=O)/C=C/c1ccc(Cl)cc1		2.4 µM	8.64 µM	2.82 µM	11.3 µM	
COc1c(C2=NC(C(C)C)CO2)ccc2ccccc12 (centres undefined)						TGI (XF 498 CNS): > 100 µM
O=C(/C=C/C12c3ccccc3C(c3ccccc31)C1C(=O)N(c3ccccc3)C(=O)C12)c1ccc(Cl)cc1 (centres undefined)		1.93 µM	5.39 µM	1.77 µM	4.03 µM	
CC1(C)CCC[C@@]2(C)C1C[C@H](O)[C@@]1(C)O[C@@](C)([C@H](O)CO)CCC21 (some centres undefined)	> 100					TGI (XF 498 CNS): > 100 µM
CCC1=C(C)/C(=C/c2[nH]c(C(Br)Br)c(CC)c2C)N=C1C(Br)Br	> 100					
COc1ccc(C[n+]2c3ccccc3n3c4ccc(N)cc4ccc32)c(OC)c1OC		2.92 µM	13.5 µM	6.42 µM	78.1 µM	
CCOC(=O)C1=C(C)NC2SC(=O)/C(=C\c3ccccc3Cl)N2C1c1ccccc1 (centres undefined)		> 100 µM	> 100 µM	> 100 µM	> 100 µM	
CC1(C)OC(=O)[C@@](C)([C@H](O)c2ccccc2)O1						TGI (XF 498 CNS): > 100 µM

Structure (SMILES)	TGI (HOP-18 NSCLC) [µM]	GI50 (MDA-MB-435)	TGI (MDA-MB-435)	GI50 (DU-145 prostate)	TGI (DU-145 prostate)	other results
CN1C(OCc2ccccc2)c2c(ccc3c2OCO3)C2C=Cc3cc4c(cc3C21)OCO4 (centres undefined)	2.61					
CC(N=C(N)N)C(=O)O (centres undefined)			> 100 µM		> 100 µM	TGI (MDA-N): > 100 µM
O=C1c2cccc3cc([N+](=O)[O-])cc(c23)C(=O)N1NC1=NCCN1	> 100					TGI (XF 498 CNS): > 100 µM
CC(=O)Nc1ccc(-c2c3nc(c(-c4cc5ccccc5[n+](C)c4)c4ccc([nH]4)c(-c4ccc(NC(C)=O)cc4)c4nc(c(-c5cc6ccccc6[n+](C)c5)c5ccc2[nH]5)C=C4)C=C3)cc1		7.19 µM	30.6 µM	5.93 µM	17.1 µM	GI50 (MDA-N): 11.2 µM; TGI (MDA-N): 36.7 µM
COc1cccc(C(=O)Nc2ccc(CN3CCc4nc5cc(OC)c(OC)cc5cc43)cc2)c1		3.47 µM	19.3 µM	4.55 µM	67.9 µM	
CCN(CC)C(=O)CC1=C(C)/C(=C/c2[nH]c(-c3ccc[nH]3)cc2OC)N=C1C		0.412 µM	14.6 µM	0.546 µM	> 100 µM	
CN1CCN(CCCOc2cccc3nc(Nc4ccc(Cl)c(F)c4)ccc23)CC1		1.61 µM	3.14 µM	1.75 µM	3.19 µM	
C/C=C(\C)c1cc(=O)c2c(C)cc3c(c2o1)C(=O)c1c(O)c(C2CC(C)(N(C)C)C(O)C(C)O2)cc(C2CC(N(C)C)C(O)C(C)O2)c1C3=O (centres undefined)	> 100		0.866 µM		5.75 µM	TGI (MDA-N): 0.46 µM; TGI (P388/ADR leukemia): 67.9 µM; TGI (P388 leukemia): 5.36 µM; TGI (SN12K1 renal): 2.52 µM
N=Nc1c(OC(=O)Nc2ccccc2)[nH]c2ccccc12			45.1 µM		22.7 µM	TGI (MDA-N): 61.8 µM
CC(C)(C)[Si](C)(C)OCC1CCC(n2cnc3c(=O)[nH]cnc32)O1 (centres undefined)			> 100 µM		> 100 µM	TGI (MDA-N): > 100 µM
O=C(Cn1c(=O)c(-c2ccccc2)nc2ccccc21)c1ccc(Cl)cc1		> 100 µM	> 100 µM	52.2 µM	> 100 µM	
Nc1ncnc2c1ncn2C1OC(CSC(F)(F)F)C(O)C1O (centres undefined)	> 100					
N#CC(C#N)=Cc1c(-c2ccccc2)[nH]c2ccccc12		0.248 µM	0.736 µM	3.2 µM	17.9 µM	
NC(=O)c1cc(-c2ccncc2)cc(-c2ccccc2)c1N		> 25 µM	> 25 µM	> 22.9 µM	> 25 µM	
O=C(CC(=O)c1ccc([N+](=O)[O-])cc1)C(=O)Nc1nccs1	> 100					TGI (XF 498 CNS): > 100 µM
NC1=NC(c2ccc(Cl)cc2)N(c2ccc(S(=O)(=O)Nc3ncccn3)cc2)C(N)=N1 (centres undefined)			> 100 µM		> 100 µM	TGI (MDA-N): > 100 µM
COc1cc(=O)oc(/C=C/C=O)c1C	37.5					TGI (XF 498 CNS): 32.4 µM
Cc1ccc(C2CC(c3ccc([N+](=O)[O-])cc3)=Nc3ccccc3S2)cc1 (centres undefined)	> 100					TGI (XF 498 CNS): 55.7 µM
COc1cc([N+](=O)[O-])c(S(=O)(=O)O)cc1NS(=O)(=O)c1ccc(C)cc1			> 100 µM		> 100 µM	TGI (MDA-N): > 100 µM
Cc1c(C(=O)CC(=O)C(=O)Nc2c(C(C)C)cccc2C(C)C)[n+](=O)c2ccccc2n1[O-]						TGI (XF 498 CNS): 15 µM
CCNC(C)(C)C(SS)c1ccc(Br)cc1 (centres undefined)			> 100 µM		> 100 µM	TGI (MDA-N): > 100 µM
O=[N+]([O-])c1cc([N+](=O)[O-])c(Cl)c(Cl)c1Cl		1.72 µM	3.33 µM	1.57 µM	2.98 µM	
COC(=O)C1CC(=O)CCC1c1ccccc1 (centres undefined)	> 100					
C=C[C@@]1(C)CCC2(O)C(CCC3C2(C)CCC[C@@]3(C)COC(=O)CC(=O)OC)C1 (some centres undefined)						TGI (XF 498 CNS): 40.6 µM
CC[C@@]1(OC(=O)CN)C(=O)OCc2c1cc1n(c2=O)Cc2cc3cc4c(cc3nc2-1)OCO4		< 0.0131 µM	0.838 µM	< 0.01 µM	< 0.012 µM	GI50 (MDA-N): < 0.01 µM; TGI (MDA-N): 2.27 µM
